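Method: 48-hour compound exposure of cells in 96-well plates, five concentrations, linear interpolation of endpoints. The concentration for 50% growth inhibition is given as GI50.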 Active and inactive are the calls of the source. No stated cut-off is given here; in the data, active = GI50 up to about 1.1 µM and inactive = higher.
Legend:
Test in all cases: growth of human tumour cells (NCI), 48 h
UACC-257 = tested on: UACC-257
NCI-H460 = tested on: NCI-H460
COLO 205 = tested on: COLO 205
ACHN = tested on: ACHN
OVCAR-8 = tested on: OVCAR-8
NCI/ADR-RES = tested on: NCI/ADR-RES
UACC-62 = tested on: UACC-62
EKVX = tested on: EKVX
HCC 2998 = tested on: HCC 2998
MCF7 = tested on: MCF7
SNB-19 = tested on: SNB-19
SK-MEL-5 = tested on: SK-MEL-5
786-0 = tested on: 786-0
A549 = tested on: A549
SF-295 = tested on: SF-295
OVCAR-4 = tested on: OVCAR-4
CAKI-1 = tested on: CAKI-1
M14 = tested on: M14
RXF 393 = tested on: RXF 393

Row | Structure (SMILES) | GI50 (UACC-257) | GI50 (NCI-H460) | GI50 (COLO 205) | GI50 (ACHN) | GI50 (OVCAR-8) | GI50 (NCI/ADR-RES) | GI50 (UACC-62) | GI50 (EKVX) | GI50 (HCC 2998) | GI50 (MCF7) | GI50 (SNB-19) | GI50 (SK-MEL-5) | GI50 (786-0) | GI50 (A549) | GI50 (SF-295) | GI50 (OVCAR-4) | GI50 (CAKI-1) | GI50 (M14) | GI50 (RXF 393)
1 | Nc1ccc(-c2nc3cc(F)ccc3s2)cc1 | > 43.4 µM (inactive) | 7.98 µM (inactive) | 61 µM (inactive) | 20.6 µM (inactive) | > 95.9 µM (inactive) | > 100 µM (inactive) | 28.6 µM (inactive) | 2 µM (inactive) | 26.3 µM (inactive) | < 0.01 µM (active) | > 100 µM (inactive) | 61.4 µM (inactive) | > 85.3 µM (inactive) | 87.7 µM (inactive) | 25.5 µM (inactive) | > 36.7 µM (inactive) | 27.7 µM (inactive) | 71.6 µM (inactive) | 32.3 µM (inactive)
2 | O=C1c2cc(Cl)ccc2-n2c(noc2=O)C2CSCN12 (stereo not given) | > 100 µM (inactive) | > 100 µM (inactive) | > 100 µM (inactive) | > 100 µM (inactive) | > 100 µM (inactive) | > 100 µM (inactive) | > 100 µM (inactive) | > 100 µM (inactive) | > 100 µM (inactive) | > 100 µM (inactive) | > 100 µM (inactive) | > 100 µM (inactive) | > 100 µM (inactive) | > 100 µM (inactive) | > 100 µM (inactive) | > 100 µM (inactive) | > 100 µM (inactive) | > 100 µM (inactive) | > 100 µM (inactive)
3 | COc1ccc(Oc2ccc3cc4c(cc3c2O)OCO4)c2cc(C)oc12 | 20.8 µM (inactive) | 21.5 µM (inactive) | 25.5 µM (inactive) | 35.6 µM (inactive) | 37.5 µM (inactive) | 20.9 µM (inactive) | 35.6 µM (inactive) | 28.7 µM (inactive) | 23.2 µM (inactive) | 34 µM (inactive) | 36.9 µM (inactive) | 16.4 µM (inactive) | 35.8 µM (inactive) | 30.1 µM (inactive) | 33.5 µM (inactive) | 22.4 µM (inactive) | 30.1 µM (inactive) | 26.6 µM (inactive) | 15.7 µM (inactive)
4 | O=C(O)c1ccccc1CC1Cc2ccc3c(c2C1=O)CCC3 (stereo not given) | > 100 µM (inactive) | > 100 µM (inactive) | > 100 µM (inactive) | > 100 µM (inactive) | > 100 µM (inactive) | > 100 µM (inactive) | > 100 µM (inactive) | > 100 µM (inactive) | > 100 µM (inactive) | > 100 µM (inactive) | > 100 µM (inactive) | > 100 µM (inactive) | > 100 µM (inactive) | > 100 µM (inactive) | > 100 µM (inactive) | > 100 µM (inactive) | > 100 µM (inactive) | 61.8 µM (inactive) | > 100 µM (inactive)
5 | CC(=O)OC1CC2C(=O)CC1(C)C2(C)C (stereo not given) | > 100 µM (inactive) | > 100 µM (inactive) | > 100 µM (inactive) | > 100 µM (inactive) | > 100 µM (inactive) | > 100 µM (inactive) | > 100 µM (inactive) | > 100 µM (inactive) | > 100 µM (inactive) | > 100 µM (inactive) | > 100 µM (inactive) | > 100 µM (inactive) | > 100 µM (inactive) | > 100 µM (inactive) | > 100 µM (inactive) | > 100 µM (inactive) | > 100 µM (inactive) | > 100 µM (inactive) | > 100 µM (inactive)
6 | Cc1nc(C)c(C(=O)NNC(=O)Cc2ccccc2)cc1C(=O)NNC(=O)Cc1ccccc1 | > 100 µM (inactive) | > 100 µM (inactive) | > 100 µM (inactive) | > 100 µM (inactive) | > 100 µM (inactive) | > 100 µM (inactive) | > 100 µM (inactive) | > 100 µM (inactive) | > 100 µM (inactive) | > 100 µM (inactive) | > 100 µM (inactive) | > 100 µM (inactive) | > 100 µM (inactive) | > 100 µM (inactive) | > 100 µM (inactive) | > 100 µM (inactive) | > 100 µM (inactive) | > 100 µM (inactive) | > 100 µM (inactive)
7 | CC(=O)OC1/C(=C/c2ccc([N+](=O)[O-])cc2)C[C@H]2[C@@H]3CC=C4C[C@@H](OC(C)=O)CC[C@]4(C)[C@H]3CC[C@]12C (stereo not given in full) | > 100 µM (inactive) | > 100 µM (inactive) | > 54.6 µM (inactive) | 99.8 µM (inactive) | > 100 µM (inactive) | > 43 µM (inactive) | > 100 µM (inactive) | > 85.7 µM (inactive) | > 100 µM (inactive) | > 100 µM (inactive) | > 72.4 µM (inactive) | > 100 µM (inactive) | 70.6 µM (inactive) | > 100 µM (inactive) | > 73.6 µM (inactive) | > 96.4 µM (inactive) | > 48.9 µM (inactive) | > 100 µM (inactive) | 20 µM (inactive)
8 | FC(F)(F)c1ccc2c(c1)nc(Cc1ccc(Cl)c(Cl)c1)n2CC1CCCN2CCCCC12 (stereo not given) | 18.5 µM (inactive) | 19.6 µM (inactive) | 16.1 µM (inactive) | 22.8 µM (inactive) | 35.8 µM (inactive) | 25.8 µM (inactive) | 15.9 µM (inactive) | 21.2 µM (inactive) | 8.95 µM (inactive) | 17.5 µM (inactive) | 18.9 µM (inactive) | 16.4 µM (inactive) | 16.2 µM (inactive) | 18.1 µM (inactive) | 22.9 µM (inactive) | 74.5 µM (inactive) | 29.7 µM (inactive) | 12.4 µM (inactive) | 23.6 µM (inactive)
9 | COC(=O)C1=C(C(=O)OC)SC2(S1)C(C(=O)OC)=C(C(=O)OC)Sc1c2ss/c1=N/C(C)(C)C | 1.47 µM (inactive) | 0.533 µM (active) | 1.45 µM (inactive) | 1.74 µM (inactive) | 1.71 µM (inactive) | 2.5 µM (inactive) | 1.56 µM (inactive) | 1.49 µM (inactive) | 1.08 µM (active) | 1.26 µM (inactive) | 2.13 µM (inactive) | 1.91 µM (inactive) | 1.31 µM (inactive) | 2.43 µM (inactive) | 14.1 µM (inactive) | 1.79 µM (inactive) | 1.53 µM (inactive) | 1.66 µM (inactive) | 0.541 µM (active)
10 | OC(C/C=N/N=C/CC(O)(C(F)(F)Cl)C(F)(F)Cl)(C(F)(F)Cl)C(F)(F)Cl | > 10 µM (inactive) | > 10 µM (inactive) | > 10 µM (inactive) | > 10 µM (inactive) | > 10 µM (inactive) | > 10 µM (inactive) | > 10 µM (inactive) | > 10 µM (inactive) | > 10 µM (inactive) | > 10 µM (inactive) | > 10 µM (inactive) | > 10 µM (inactive) | > 10 µM (inactive) | > 10 µM (inactive) | > 10 µM (inactive) | > 10 µM (inactive) | > 10 µM (inactive) | > 10 µM (inactive) | > 10 µM (inactive)
11 | COc1cc(-c2nc3cc(F)ccc3s2)ccc1O | 19 µM (inactive) | 70.5 µM (inactive) | 16.4 µM (inactive) | 89.5 µM (inactive) | > 100 µM (inactive) | 78.9 µM (inactive) | 36.6 µM (inactive) | 5.73 µM (inactive) | 0.0622 µM (active) | 4.61 µM (inactive) | 83.2 µM (inactive) | 12.1 µM (inactive) | 37.1 µM (inactive) | 67.5 µM (inactive) | 43.7 µM (inactive) | 21.9 µM (inactive) | 28.2 µM (inactive) | 58.3 µM (inactive) | > 100 µM (inactive)
12 | Cc1cccc2nc3c(=O)[nH]c(=O)nc-3n(C)c12 | 34.4 µM (inactive) | 48.1 µM (inactive) | 30.2 µM (inactive) | > 100 µM (inactive) | 52 µM (inactive) | 82.2 µM (inactive) | 31.9 µM (inactive) | > 100 µM (inactive) | 86.1 µM (inactive) | 34.5 µM (inactive) | 71.3 µM (inactive) | 29.6 µM (inactive) | 99.3 µM (inactive) | 84.7 µM (inactive) | 92.9 µM (inactive) | 45.5 µM (inactive) | > 100 µM (inactive) | 37.8 µM (inactive) | > 100 µM (inactive)
13 | C=C1c2nc3ccccc3n2C=C(c2ccc(OC)cc2)N1c1ccc(OC)cc1 | 34 µM (inactive) | 13.8 µM (inactive) | 83.4 µM (inactive) | 7.16 µM (inactive) | 7.24 µM (inactive) | 5.26 µM (inactive) | 16.1 µM (inactive) | 25.5 µM (inactive) | 20 µM (inactive) | 22 µM (inactive) | 4.25 µM (inactive) | 7.45 µM (inactive) | 5.4 µM (inactive) | 21.3 µM (inactive) | 11.7 µM (inactive) | 7.78 µM (inactive) | 4.62 µM (inactive) | 39.8 µM (inactive) | 9.98 µM (inactive)
14 | O=C(OCC(Cl)(Cl)Cl)O[C@@H]1CCCC1(c1ccccc1)c1ccccc1 | 67.8 µM (inactive) | 71 µM (inactive) | > 100 µM (inactive) | > 100 µM (inactive) |  | > 100 µM (inactive) | > 100 µM (inactive) | > 100 µM (inactive) | 45.4 µM (inactive) | 55.1 µM (inactive) | > 100 µM (inactive) | 35.9 µM (inactive) | > 100 µM (inactive) | 65.3 µM (inactive) | > 100 µM (inactive) | > 100 µM (inactive) | > 100 µM (inactive) | > 100 µM (inactive) | 63.2 µM (inactive)

Source: ChEMBL document CHEMBL1201862, “PubChem BioAssay data set” (2004)
